One data set relates to diarrhea. As to the kind of experiment: Diarrheal assay in rats. It is filed as in vivo, male Charles River rats. The following applies: intragastric, up to 8 hours. The protocol:
(§1) Diarrhea is an undesirable side effect commonly associated with antisecretory and cytoprotective prostaglandins. […] Groups of 6 adult male Charles River rats weight rang®180 to 200 g, are fasted for 24 hours prior to administering the test substance. The prostaglandin to be tested is administered intragastrically in iso-osmotic phosphate buffer at a volume of 10 ml/kg at doses ranging from 100 to 3000 μg/kg. Control animals receive only the vehicle. The rats are placed in individual wire mesh cages and t he trays lined with brown paper. Diarrhea is assessed at hourly intervals on all or none basis for up to 8 hours after administration of the prostaglandin. Diarrhea is defined as any loose or watery stool. ED50 values are assessed for each hourly diarrheagenic response.

Data set [1] can be described thus: Acid stability in acetic acid:THF:water, thin layer chromatography. It is filed as physicochemical. The following applies: 3:1:1 acetic acid:THF:water, room temperature, TLC, all time points. The protocol: Comparison of Acid Stability of Compound of Example 1 with its parent non-fluorinated analog.
Each compound (4 mg) was separately dissolved in 0.4 ml of a 3:1:1 solution of acetic acid:THF:water and kept at room temperature. Relative decomposition was assessed by thin layer chromatography analysis of aliquots withdrawn at 30 minutes, 1,2, 4 and 6 hours.

The test system of data set [2] is ethanol-induced gastric lesions. As to the kind of experiment: Ethanol induced gastric lesion assay in rats (cytoprotective). The class given is in vivo, male Charles River rats. The following applies: rat, oral, 30 minutes before absolute ethanol; read-out: Ethanol-Induced Gastric Lesion *MED (Minimal effective dose). As for the experimental part:
In the assay, 0.005-0.5 mg/kg is orally administered to adult 180-220 gram male Charles River rats which have been deprived of food for 24 hours. Thirty minutes later, 1.0 ml of absolute ethanol is administered intragastrically. The rats are sacrificed 60 minutes after alcohol administration and the gastric mucosa are visually examined for the presence of lesions. The number and severity of lesions are scored. A compound is judged active at the concentration evaluated if it provides a statistically significant reduction in the number and/or severity of lesions compared to the control group.

The next data set has as its system gastric acid secretion. In words: Gastric acid secretion assay in dogs (Pavlov gastric pouch, meal-stimulated). The following applies: into gastric pouch; for ED50: Canis lupus familiaris, dog, total acid output over 4 hours after feeding, read-out: Gastric Antisecretory (Dog) ED50; for Gastric Antisecretory (Dog), % inhibition at 0.3: at 0.3 (column unit μg/kg). It is filed as in vivo, dog (adult female beagles). The source says: The standard test used to detect gastric antisecretory activity is described as follows.
Adult female beagles, 6-11 kg body weight, were surgically prepared with innervated (Pavlov) gastric pouches that were drained by Thomas-type gastric cannulae. Following surgical recovery, each dog was trained to stand quietly in a dog restraining sling and was conscious for all studies. Experiments began at least 3 weeks after surgery, and no dog was used more than once per week.
Dogs were food-deprived with access to water for 24 hours prior to experiments. Following a 30 minute basal collection period, the prostaglandins or vehicle were administered into the gastric pouch in a 2-3 ml volume. Thirty minutes later the gastric pouch was emptied and gastric secretion was stimulated by feeding 10-12 oz of dog food (Fromm All Beef, Federal Foods Inc., Thiensville, Wis.). Gastric juice samples were collected from the pouch by gravity drainage over a 4 hour period at 30 minute intervals. The volume of secretion was measured (ml/30 min), and the acidity (mequiv/L) was determined by electrometric titration to pH 7.0 with 0.1 N NaOH. These two parameters were multiplied to obtain the total acid output (mequiv/30 minutes) for each collection period.
Percent reduction of total acid output from control was calculated over each 4 hour experiment for doses of prostaglandin. ED50 values and 95% confidence limits were determined from inhibition of secretion curves.

The next data set can be described thus: Diarrheal assay in rats. The class given is in vivo, male Charles River rats. The following applies: in vivo, po; rat, intragastric, up to 8 hours; read-out: Diarrhea Rat ED50. The protocol:
as §1

As for `COC(=O)CC/C=C\CC[C@H]1C(=O)C[C@@H](O)[C@@H]1/C=C/C[C@@](O)(/C=C/C1=CCCC1)CF` (relative stereo) [Example 1, (±)-methyl 7-[2β-[6-(1-cyclopenten-1-yl)-4R-(fluoromethyl)-4-hydroxy-1E,5E-hexadienyl]-3α-hydroxy-5-oxo-lo-cyclopentyl]-4Z-heptenoate], the “Diarrhea Rat ED50” value in the data set with diarrhea was over 3160 μ/kg. The “decomposition at 30 minutes, 1, 2, 4 and 6 hours” value in data set [1] is on record as “virtually no decomposition products were observed”. The minimal effective dose in data set [2] is 1 µg/kg.

`COC(=O)CC/C=C\CC[C@H]1C(=O)C[C@@H](O)[C@@H]1/C=C/C[C@@](O)(/C=C/C1=CCCC1)C(F)F` (relative stereo) [Example 3, (±)-methyl 7-[2β-[6-(1-cyclopenten-1-yl)-4R-(difluoromethyl)-4-hydroxy-1E,5E-hexadienyl]-3α-hydroxy-5-oxo-1α-cyclopentyl]-4Z-heptenoate]: the “Diarrhea Rat ED50” value with diarrhea was over 3160 μ/kg. For the same compound, the minimal effective dose in data set [2] turned out to be 10 µg/kg. Moreover, the ED50 in the data set on gastric acid secretion is over 1 µg/kg.

For the compound `COC(=O)CC/C=C\CC[C@H]1C(=O)C[C@@H](O)[C@@H]1/C=C/C[C@@](O)(/C=C/C1=CCCC1)C(F)(F)F` (relative stereo) [Example 4, (±)-methyl 7-[2β-[6-(1-cyclopenten-1yl)-4R-hydroxy-4-(trifluoromethyl)-1E,5E-hexadienyl]-3α-hydroxy-5-oxo-1α-cyclopentyl]-4Z-heptenoate], the “Diarrhea Rat ED50” value with diarrhea was over 3160 μ/kg. Moreover, the minimal effective dose in data set [2] is 100 µg/kg. The ED50 with gastric acid secretion was over 0.1 µg/kg.

Turning to `COC(=O)CC/C=C\CC[C@H]1C(=O)C[C@@H](O)[C@@H]1/C=C/C[C@@](O)(/C=C/C1=CCCC1)CCl` (relative stereo) [Example 5, (±)-methyl 7-[2β-[4R-(chloromethyl)-6-(1-cyclopenten-1-yl)-4-hydroxy-1E, 5E-hexadienyl]-3α-hydroxy-5-oxo-1α-cyclopentyl]-4Z-heptenoate], in data set [2], the minimal effective dose stood at 10 µg/kg. For the same compound, in the data set on gastric acid secretion, the ED50 is over 0.1 µg/kg.

Turning to `COC(=O)CC/C=C\CC[C@H]1C(=O)C[C@@H](O)[C@@H]1/C=C/C[C@@](C)(O)/C=C/C=C/C(F)(F)F` (relative stereo) [Example 6, (±)-methyl 11α,16R-dihydroxy-16-methyl-9-oxo-20-(trifluoromethyl) prosta-4Z,13E,17E,19E-tetraen-1-oate], the “Gastric Antisecretory (Dog), % inhibition at 0.3” value with gastric acid secretion was 84%.

`COC(=O)CC/C=C\CC[C@H]1C(=O)C[C@@H](O)[C@@H]1/C=C/C[C@@](C)(O)/C=C/C=C(\C)C(F)(F)F` (relative stereo) [Example 7, (±)-methyl 11α,16R-dihydroxy-16,20-dimethyl-9-oxo-20-(trifluoromethyl) prosta-4Z,13E,17E, 19E-tetraen-1-oate]: the minimal effective dose in data set [2] amounted to 50 µg/kg. In addition, the “Gastric Antisecretory (Dog), % inhibition at 0.3” value with gastric acid secretion is recorded as 74%.

As to `COC(=O)CC/C=C\CC[C@H]1C(=O)C[C@@H](O)[C@@H]1/C=C/C[C@@](C)(O)/C=C/C(F)=C(C)C` (relative stereo) [Example 8, (±)-methyl 19-fluoro-11α,16R-dihydroxy-16,20,20-trimethyl-9-oxoprosta-4Z,13E,17E, 19-tetraen-1-oate], the minimal effective dose in data set [2] was 1 µg/kg.

For the compound `COC(=O)CC/C=C\CC[C@H]1C(=O)C[C@@H](O)[C@@H]1/C=C/C[C@@](C)(O)/C=C/C=C(Cl)Cl` (relative stereo) [Example 9, (±)-methyl 20,20-dichloro-11α,16R-dihydroxy-16-methyl-9-oxoprosta-4Z,13E,17E,19-tetraen-1-oate], in the data set “Diarrheal assay in rats”, the TD50 at 8 h is 1000 µg/kg. Besides, the minimal effective dose in data set [2] worked out at 2.5 µg/kg.

As for `COC(=O)CC/C=C\CC[C@H]1C(=O)C[C@@H](O)[C@@H]1/C=C/C[C@@](O)(/C=C/C=C(C)C)CF` (relative stereo) [Example 10, methyl 16R-(fluoromethyl)-11α,16-dihydroxy-20,20-dimethyl-9-oxoprosta-4Z,13E,17E,19-tetraen-1-oate], the “Diarrhea Rat ED50” value in the data set with diarrhea was over 3160 μ/kg. Besides, the minimal effective dose in data set [2] was determined as 25 µg/kg. Besides, the ED50 in the data set with gastric acid secretion is under 0.3 µg/kg.

In the case of `COC(=O)CC/C=C\CC[C@H]1C(=O)C[C@@H](O)[C@@H]1/C=C/C[C@@](O)(/C=C/C1=CCCC1)CF` [Example 2, methyl 7-[2β-[6-(1-cyclopenten-1-yl)-4R-(fluoromethyl)-4-hydroxy-1E,5E-hexadienyl]-3α-hydroxy-5-oxo-1R,1α-cyclopentyl]-4Z-heptenoate], the “Diarrhea Rat ED50” value in the data set on diarrhea was over 3160 μ/kg. Moreover, the minimal effective dose in data set [2] stood at 1 µg/kg.

Values taken from patent US5177251A, “Halogenated tetraenyl prostaglandin derivatives” (G. D. Searle & Co., priority 1991, dated 1993).
